Data published in BindingDB's records for patent US12344595 (Merck Sharp & Dohme, 2025).

Biological target: Sodium channel protein type 10 subunit alpha (Homo sapiens, UniProt Q9Y5Y9)
Assay: Not found
Source text: Not found

Sequence of Sodium channel protein type 10 subunit alpha (Q9Y5Y9 whole entry): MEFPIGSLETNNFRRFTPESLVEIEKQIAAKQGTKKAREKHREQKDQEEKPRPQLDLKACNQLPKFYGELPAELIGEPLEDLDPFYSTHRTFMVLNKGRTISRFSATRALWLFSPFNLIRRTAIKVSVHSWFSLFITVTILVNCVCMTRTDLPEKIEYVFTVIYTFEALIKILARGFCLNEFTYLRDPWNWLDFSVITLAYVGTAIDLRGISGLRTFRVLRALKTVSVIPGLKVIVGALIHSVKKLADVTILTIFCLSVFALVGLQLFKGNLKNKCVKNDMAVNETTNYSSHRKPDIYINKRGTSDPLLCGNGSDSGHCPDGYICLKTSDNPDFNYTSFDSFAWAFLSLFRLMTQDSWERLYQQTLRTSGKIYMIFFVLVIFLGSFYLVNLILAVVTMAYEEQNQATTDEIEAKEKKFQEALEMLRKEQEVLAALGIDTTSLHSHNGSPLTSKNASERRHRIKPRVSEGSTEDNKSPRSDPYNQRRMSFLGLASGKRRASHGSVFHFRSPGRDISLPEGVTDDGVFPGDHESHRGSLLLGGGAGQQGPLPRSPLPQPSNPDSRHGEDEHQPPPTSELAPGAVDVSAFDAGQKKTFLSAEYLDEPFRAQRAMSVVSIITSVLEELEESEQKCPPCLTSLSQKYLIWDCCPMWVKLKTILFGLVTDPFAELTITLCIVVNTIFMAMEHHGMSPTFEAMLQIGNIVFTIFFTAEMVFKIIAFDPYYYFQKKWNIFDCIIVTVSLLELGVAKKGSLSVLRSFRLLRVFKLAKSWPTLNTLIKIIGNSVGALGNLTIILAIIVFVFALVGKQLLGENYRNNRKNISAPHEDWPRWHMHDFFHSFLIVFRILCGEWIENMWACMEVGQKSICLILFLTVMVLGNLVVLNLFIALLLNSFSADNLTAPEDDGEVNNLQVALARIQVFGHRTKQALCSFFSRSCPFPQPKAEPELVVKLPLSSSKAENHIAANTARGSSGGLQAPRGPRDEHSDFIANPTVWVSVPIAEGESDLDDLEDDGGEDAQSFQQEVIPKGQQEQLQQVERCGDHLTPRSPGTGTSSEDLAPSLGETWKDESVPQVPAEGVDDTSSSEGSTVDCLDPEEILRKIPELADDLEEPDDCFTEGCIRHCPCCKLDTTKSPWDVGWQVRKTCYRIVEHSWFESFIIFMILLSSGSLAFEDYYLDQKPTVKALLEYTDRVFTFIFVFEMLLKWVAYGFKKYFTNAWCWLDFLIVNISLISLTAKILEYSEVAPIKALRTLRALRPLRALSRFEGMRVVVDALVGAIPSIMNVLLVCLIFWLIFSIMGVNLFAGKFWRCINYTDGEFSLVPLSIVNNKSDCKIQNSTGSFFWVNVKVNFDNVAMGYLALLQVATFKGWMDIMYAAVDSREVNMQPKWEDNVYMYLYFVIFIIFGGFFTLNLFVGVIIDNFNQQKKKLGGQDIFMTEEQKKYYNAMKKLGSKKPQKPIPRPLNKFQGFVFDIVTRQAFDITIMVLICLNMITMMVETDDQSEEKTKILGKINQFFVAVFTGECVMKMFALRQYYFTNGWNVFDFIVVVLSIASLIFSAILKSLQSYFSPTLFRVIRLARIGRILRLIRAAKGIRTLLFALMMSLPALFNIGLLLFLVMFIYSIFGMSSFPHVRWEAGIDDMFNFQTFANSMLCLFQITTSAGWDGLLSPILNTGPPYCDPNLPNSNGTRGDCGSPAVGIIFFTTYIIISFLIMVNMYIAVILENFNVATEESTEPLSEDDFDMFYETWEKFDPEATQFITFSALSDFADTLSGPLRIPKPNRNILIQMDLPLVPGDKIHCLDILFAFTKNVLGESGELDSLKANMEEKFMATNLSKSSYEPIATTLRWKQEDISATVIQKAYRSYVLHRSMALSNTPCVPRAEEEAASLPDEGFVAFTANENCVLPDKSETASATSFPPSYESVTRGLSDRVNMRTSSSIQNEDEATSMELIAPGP

IC50: 49 nM
SMILES: Cc1nc(N2CCC(F)(F)C2)c(C(=O)Nc2cccc(S(N)(=O)=O)c2)c(C)c1Cl [US12344595, Example 5]
